For data set [1] the following is noted: cited from earlier work.
For data set [2] the following is noted: heated to 230° C. under a nitrogen atmosphere; cited from earlier work.
Data set [3] in a line: Conversion of the methanol solvate on drying. The format is physicochemical. The text has this: In another embodiment the invention relates to a novel methanol solvate of Aprepitant. The methanol solvate is useful for the purification of Aprepitant.

Structures are written as SMILES. In brackets after ≈: the same amount, converted by molar mass.

On to `C[C@@H](O[C@H]1OCCN(Cc2nc(=O)[nH][nH]2)[C@H]1c1ccc(F)cc1)c1cc(C(F)(F)F)cc(C(F)(F)F)c1` [Form II of Aprepitant, 2-(R)-(1-(R)-(3,5)-bis(trifluoromethyl)-phenyl)ethoxy)-3-(S)-(4-fluoro)phenyl-4-(3-(5-oxo-1H,4H-1,2,4-triazolo)methylmorpholine], for which the “solubility in a methanol/water mixture (2:1)” value in data set [1] was “about 1.3±0.2 mg/ml”. Besides, the “conversion of polymorphic form on heating” value in data set [2] is “converts to form I”.

Regarding `C[C@@H](O[C@H]1OCCN(Cc2nc(=O)[nH][nH]2)[C@H]1c1ccc(F)cc1)c1cc(C(F)(F)F)cc(C(F)(F)F)c1` [form I, 2-(R)-(1-(R)-(3,5)-bis(trifluoromethyl)-phenyl)ethoxy)-3-(S)-(4-fluoro)phenyl-4-(3-(5-oxo-1H,4H-1,2,4-triazolo)methylmorpholine], the “solubility in a methanol/water mixture (2:1)” value in data set [1] was 900 ± 100 µg/mL (≈ 1680 µM).

For `CO.C[C@@H](O[C@H]1OCCN(Cc2nc(=O)[nH][nH]2)[C@H]1c1ccc(F)cc1)c1cc(C(F)(F)F)cc(C(F)(F)F)c1` [methanol solvate, Methanol solvate of 2-(R)-(1-(R)-(3,5)-bis(trifluoromethyl)-phenyl)ethoxy)-3-(S)-(4-fluoro)phenyl-4-(3-(5-oxo-1H,4H-1,2,4-triazolo)methylmorpholine], the “conversion of solid form on drying” value in data set [3] is “converts to form I of Aprepitant on drying”.

The values are drawn from patent US20110015191A1, “ORGANIC COMPOUNDS” (SANDOZ AG, priority 2007, published 2011).
